# From patent US11198713B2, “Agents modulating beta-catenin functions and methods thereof” (FOG PHARMACEUTICALS, INC., priority 2017, dated 2021)
# Molecular target: T1, full-length beta-catenin (Axin site) (Homo sapiens, UniProt P35222)
# T1 construct: 15 nM full-length beta-catenin, 20 nM FITC labeled peptide in buffer
# T1 sequence (P35222 1-781): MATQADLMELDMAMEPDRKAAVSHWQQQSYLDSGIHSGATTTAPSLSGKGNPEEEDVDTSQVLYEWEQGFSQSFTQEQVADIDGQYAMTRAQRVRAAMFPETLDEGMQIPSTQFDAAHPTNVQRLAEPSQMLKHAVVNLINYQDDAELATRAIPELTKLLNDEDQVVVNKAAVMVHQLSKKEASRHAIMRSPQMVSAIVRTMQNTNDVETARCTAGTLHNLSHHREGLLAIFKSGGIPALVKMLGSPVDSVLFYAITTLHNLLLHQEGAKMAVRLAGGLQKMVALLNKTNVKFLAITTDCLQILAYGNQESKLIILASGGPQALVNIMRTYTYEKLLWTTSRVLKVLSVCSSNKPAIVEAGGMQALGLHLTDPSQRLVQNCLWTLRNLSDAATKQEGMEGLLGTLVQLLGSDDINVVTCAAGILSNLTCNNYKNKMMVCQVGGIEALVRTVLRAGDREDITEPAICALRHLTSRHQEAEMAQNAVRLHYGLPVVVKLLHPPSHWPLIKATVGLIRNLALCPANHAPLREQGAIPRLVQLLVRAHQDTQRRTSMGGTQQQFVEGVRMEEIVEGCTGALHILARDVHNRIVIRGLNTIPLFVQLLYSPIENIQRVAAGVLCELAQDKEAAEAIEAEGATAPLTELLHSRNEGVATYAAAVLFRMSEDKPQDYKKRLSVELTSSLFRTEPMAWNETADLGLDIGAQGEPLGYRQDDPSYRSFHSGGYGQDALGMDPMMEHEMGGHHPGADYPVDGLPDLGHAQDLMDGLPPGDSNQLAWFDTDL
# Assay: Competition fluorescence polarization assay (Axin site probe)
# Format: binding
# Details: competition fluorescence polarization, Table 2; read-out: in vitro FP EC50
# Summary of the method: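 Competition FP: 15 nM full-length β-catenin pre-incubated 5 min with 20 nM FITC-labelled stapled Axin-site peptide, then titrated peptide added (3-fold series from 5 μM) for 15 min in the dark. Buffer 50 mM Tris pH 8.0, 250 mM NaCl, 2% glycerol, 0.5 mM EDTA; duplicate reads.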
row,EC50,SMILES
1,0.5 to 5 µM,"CC[C@H](C)[C@@H]1NC(=O)C2(NC(=O)[C@H](CCC(N)=O)NC(=O)[C@@H]3CCCN3C(C)=O)CN(C2)C(=O)OCC=CCC[C@](C)(C(=O)N[C@@H](Cc2c[nH]cn2)C(=O)N[C@H](C(=O)N[C@@H](CCCNC(=N)N)C(=O)N[C@@H](CCCNC(=N)N)C(=O)N[C@H](C(=O)N[C@@H](Cc2c[nH]c3ccccc23)C(=O)N[C@@H](CCCNC(=N)N)C(N)=O)C(C)C)C(C)C)NC(=O)[C@H](CC(=O)O)NC(=O)[C@H](CC(C)C)NC1=O (single isomer, unassigned) [FP0721c, Ac-P-Q-MA-I-L-D-R4-H-V-R-R-V-W-R-NH2]"
2,0.5 to 5 µM,"CC[C@H](C)[C@@H]1NC(=O)C2(NC(=O)[C@H](CCC(N)=O)NC(=O)[C@@H]3CCCN3C(C)=O)CN(C2)C(=O)OCC=CCCC[C@](C)(C(=O)N[C@@H](Cc2c[nH]cn2)C(=O)N[C@H](C(=O)N[C@@H](CCCNC(=N)N)C(=O)N[C@@H](CCCNC(=N)N)C(=O)N[C@H](C(=O)N[C@@H](Cc2c[nH]c3ccccc23)C(=O)N[C@@H](CCCNC(=N)N)C(N)=O)C(C)C)C(C)C)NC(=O)[C@H](CC(=O)O)NC(=O)[C@H](CC(C)C)NC1=O (single isomer, unassigned) [FP0723c, Ac-P-Q-MA-I-L-D-R5-H-V-R-R-V-W-R-NH2]"
3,0.5 to 5 µM,"CC[C@H](C)[C@@H]1NC(=O)C2(NC(=O)[C@H](CCC(N)=O)NC(=O)[C@@H]3CCCN3C(C)=O)CN(C2)C(=O)OCC=CCCC[C@@](C)(C(=O)N[C@@H](Cc2c[nH]cn2)C(=O)N[C@H](C(=O)N[C@@H](CCCNC(=N)N)C(=O)N[C@@H](CCCNC(=N)N)C(=O)N[C@H](C(=O)N[C@@H](Cc2c[nH]c3ccccc23)C(=O)N[C@@H](CCCNC(=N)N)C(N)=O)C(C)C)C(C)C)NC(=O)[C@H](CC(=O)O)NC(=O)[C@H](CC(C)C)NC1=O (single isomer, unassigned) [FP0724c, Ac-P-Q-MA-I-L-D-S5-H-V-R-R-V-W-R-NH2]"
4,0.5 to 5 µM,"CC[C@H](C)[C@@H]1NC(=O)C2(NC(=O)[C@H](CCC(N)=O)NC(=O)[C@@H]3CCCN3C(C)=O)CN(CC=CCCCC[C@](C)(C(=O)N[C@@H](Cc3c[nH]cn3)C(=O)N[C@H](C(=O)N[C@@H](CCCNC(=N)N)C(=O)N[C@@H](CCCNC(=N)N)C(=O)N[C@H](C(=O)N[C@@H](Cc3c[nH]c4ccccc34)C(=O)N[C@@H](CCCNC(=N)N)C(N)=O)C(C)C)C(C)C)NC(=O)[C@H](CC(=O)O)NC(=O)[C@H](CC(C)C)NC1=O)C2 (single isomer, unassigned) [FP0725a, Ac-P-Q-MA-I-L-D-R6-H-V-R-R-V-W-R-NH2]"
5,0.5 to 5 µM,"CC[C@H](C)[C@@H]1NC(=O)C2(NC(=O)[C@H](CCC(N)=O)NC(=O)[C@@H]3CCCN3C(C)=O)CN(C2)C(=O)OCC=CCCCCC[C@](C)(C(=O)N[C@@H](Cc2c[nH]cn2)C(=O)N[C@H](C(=O)N[C@@H](CCCNC(=N)N)C(=O)N[C@@H](CCCNC(=N)N)C(=O)N[C@H](C(=O)N[C@@H](Cc2c[nH]c3ccccc23)C(=O)N[C@@H](CCCNC(=N)N)C(N)=O)C(C)C)C(C)C)NC(=O)[C@H](CC(=O)O)NC(=O)[C@H](CC(C)C)NC1=O (single isomer, unassigned) [FP0727c, Ac-P-Q-MA-I-L-D-R7-H-V-R-R-V-W-R-NH2]"
6,0.5 to 5 µM,"CC[C@H](C)[C@@H]1NC(=O)C2(NC(=O)[C@H](CCC(N)=O)NC(=O)[C@@H]3CCCN3C(C)=O)CN(C2)C(=O)OCC=CCCCCC[C@@](C)(C(=O)N[C@@H](Cc2c[nH]cn2)C(=O)N[C@H](C(=O)N[C@@H](CCCNC(=N)N)C(=O)N[C@@H](CCCNC(=N)N)C(=O)N[C@H](C(=O)N[C@@H](Cc2c[nH]c3ccccc23)C(=O)N[C@@H](CCCNC(=N)N)C(N)=O)C(C)C)C(C)C)NC(=O)[C@H](CC(=O)O)NC(=O)[C@H](CC(C)C)NC1=O (single isomer, unassigned) [FP0728c, Ac-P-Q-MA-I-L-D-S7-H-V-R-R-V-W-R-NH2]"
7,0.5 to 5 µM,"CC[C@H](C)[C@@H]1NC(=O)[C@](C)(NC(=O)[C@H](CCC(N)=O)NC(=O)[C@@H]2CCCN2C(C)=O)CCC=CCOC(=O)N2CC(C(=O)N[C@@H](Cc3c[nH]cn3)C(=O)N[C@H](C(=O)N[C@@H](CCCNC(=N)N)C(=O)N[C@@H](CCCNC(=N)N)C(=O)N[C@H](C(=O)N[C@@H](Cc3c[nH]c4ccccc34)C(=O)N[C@@H](CCCNC(=N)N)C(N)=O)C(C)C)C(C)C)(C2)NC(=O)[C@H](CC(=O)O)NC(=O)[C@H](CC(C)C)NC1=O (single isomer, unassigned) [FP0731c, Ac-P-Q-R4-I-L-D-MA-H-V-R-R-V-W-R-NH2]"
8,0.5 to 5 µM,"CC[C@H](C)[C@@H]1NC(=O)[C@](C)(NC(=O)[C@H](CCC(N)=O)NC(=O)[C@@H]2CCCN2C(C)=O)CCCC=CCOC(=O)N2CC(C(=O)N[C@@H](Cc3c[nH]cn3)C(=O)N[C@H](C(=O)N[C@@H](CCCNC(=N)N)C(=O)N[C@@H](CCCNC(=N)N)C(=O)N[C@H](C(=O)N[C@@H](Cc3c[nH]c4ccccc34)C(=O)N[C@@H](CCCNC(=N)N)C(N)=O)C(C)C)C(C)C)(C2)NC(=O)[C@H](CC(=O)O)NC(=O)[C@H](CC(C)C)NC1=O (single isomer, unassigned) [FP0733c, Ac-P-Q-R5-I-L-D-MA-H-V-R-R-V-W-R-NH2]"

# The next lines start with the molecule.
row,SMILES,EC50
1,"CC[C@H](C)[C@@H]1NC(=O)[C@H](Cc2ccccn2)NC(=O)[C@H](C)NC(=O)[C@H](CC(=O)O)NC(=O)[C@H](CC(C)C)NC(=O)[C@H]([C@@H](C)CC)NC(=O)[C@](C)(NC(=O)[C@H](C)NC(C)=O)CCCCCCC=CCOC(=O)N2CC[C@@](C(=O)N[C@@H](Cc3ccc(OC)cc3)C(=O)N[C@H](C(=O)N[C@@H](Cc3c[nH]c4ccccc34)C(N)=O)C(C)C)(C2)NC1=O (single isomer, unassigned) [FP0575c Isomer 1, Ac-A-R8-I-L-D-A-2pyr-I-MB-MeY-V-W-NH2]",> 5 µM
2,"CC[C@H](C)[C@@H]1NC(=O)[C@H](Cc2ccccn2)NC(=O)[C@H](C)NC(=O)[C@H](CC(=O)O)NC(=O)[C@H](CC(C)C)NC(=O)[C@H]([C@@H](C)CC)NC(=O)[C@](C)(NC(=O)[C@H](C)NC(C)=O)CCCCCCC=CCOC(=O)N2CC[C@@](C(=O)N[C@@H](Cc3ccc(OC)cc3)C(=O)N[C@H](C(=O)N[C@@H](Cc3c[nH]c4ccccc34)C(N)=O)C(C)C)(C2)NC1=O (single isomer, unassigned) [FP0575c Isomer 2, Ac-A-R8-I-L-D-A-2pyr-I-MB-MeY-V-W-NH2]",> 5 µM
3,"CC[C@H](C)[C@@H]1NC(=O)[C@H](Cc2ccccn2)NC(=O)[C@H](C)NC(=O)[C@H](CC(=O)O)NC(=O)[C@H](CC(C)C)NC(=O)[C@H]([C@@H](C)CC)NC(=O)[C@](C)(NC(=O)[C@H](C)NC(C)=O)CCCCCCC=CCOC(=O)N2CC[C@@](C(=O)N[C@@H](Cc3ccc(F)cc3)C(=O)N[C@H](C(=O)N[C@@H](Cc3c[nH]c4ccccc34)C(N)=O)C(C)C)(C2)NC1=O (single isomer, unassigned) [FP0576c Isomer 1, Ac-A-R8-I-L-D-A-2pyr-I-MB-4FF-V-W-NH2]",> 5 µM
4,"CC[C@H](C)[C@@H]1NC(=O)[C@H](Cc2ccccn2)NC(=O)[C@H](C)NC(=O)[C@H](CC(=O)O)NC(=O)[C@H](CC(C)C)NC(=O)[C@H]([C@@H](C)CC)NC(=O)[C@](C)(NC(=O)[C@H](C)NC(C)=O)CCCCCCC=CCOC(=O)N2CC[C@@](C(=O)N[C@@H](Cc3ccc(F)cc3)C(=O)N[C@H](C(=O)N[C@@H](Cc3c[nH]c4ccccc34)C(N)=O)C(C)C)(C2)NC1=O (single isomer, unassigned) [FP0576c Isomer 2, Ac-A-R8-I-L-D-A-2pyr-I-MB-4FF-V-W-NH2]",> 5 µM
5,"CC[C@H](C)[C@@H]1NC(=O)[C@H](Cc2ccccn2)NC(=O)[C@H](C)NC(=O)[C@H](CC(=O)O)NC(=O)[C@H](CC(C)C)NC(=O)[C@H]([C@@H](C)CC)NC(=O)[C@](C)(NC(=O)[C@H](C)NC(C)=O)CCCCCCC=CCOC(=O)N2CC[C@@](C(=O)N[C@@H](Cc3cccc4ccccc34)C(=O)N[C@H](C(=O)N[C@@H](Cc3c[nH]c4ccccc34)C(N)=O)C(C)C)(C2)NC1=O (single isomer, unassigned) [FP0577c Isomer 1, Ac-A-R8-I-L-D-A-2pyr-I-MB-1NapA-V-W-NH2]",> 5 µM
6,"CC[C@H](C)[C@@H]1NC(=O)[C@H](Cc2ccccn2)NC(=O)[C@H](C)NC(=O)[C@H](CC(=O)O)NC(=O)[C@H](CC(C)C)NC(=O)[C@H]([C@@H](C)CC)NC(=O)[C@](C)(NC(=O)[C@H](C)NC(C)=O)CCCCCCC=CCOC(=O)N2CC[C@@](C(=O)N[C@@H](Cc3ccc(C)cc3)C(=O)N[C@H](C(=O)N[C@@H](Cc3c[nH]c4ccccc34)C(N)=O)C(C)C)(C2)NC1=O (single isomer, unassigned) [FP0578c Isomer 1, Ac-A-R8-I-L-D-A-2pyr-I-MB-4MeF-V-W-NH2]",> 5 µM
7,"CC[C@H](C)[C@@H]1NC(=O)[C@H](Cc2ccccn2)NC(=O)[C@H](C)NC(=O)[C@H](CC(=O)O)NC(=O)[C@H](CC(C)C)NC(=O)[C@H]([C@@H](C)CC)NC(=O)[C@](C)(NC(=O)[C@H](C)NC(C)=O)CCCCCCC=CCOC(=O)N2CC[C@@](C(=O)N[C@@H](Cc3ccc(C)cc3)C(=O)N[C@H](C(=O)N[C@@H](Cc3c[nH]c4ccccc34)C(N)=O)C(C)C)(C2)NC1=O (single isomer, unassigned) [FP0578c Isomer 2, Ac-A-R8-I-L-D-A-2pyr-I-MB-4MeF-V-W-NH2]",> 5 µM
